Values after ≈ are worked out from the molar mass of the structure shown. Active and inactive are the calls of the source. No cut-off for these calls is given here.
Key:
[1] = test system: Mus musculus; assay: Central serotoninmimetic activity in CF mouse assessed as induction of head twitches at 6 mg/kg, ip after 60 mins; format: functional, organism-based; parameters: dose 6 mg/kg
[2] = test system: Mus musculus; assay: Central serotoninmimetic activity in CF mouse assessed as induction of head twitches at 30 mg/kg, ip after 60 mins; format: functional, organism-based; parameters: dose 30 mg/kg
[3] = Peripheral serotoninmimetic activity in Charles River rat uterus assessed as uterine contraction measured as tension developed at 0.1 ug/ml; format: ADME, tissue-based
[4] = Peripheral serotoninmimetic activity in Charles River rat uterus assessed as uterine contraction; format: ADME, tissue-based
[5] = Peripheral serotoninmimetic activity in Charles River rat uterus assessed as uterine contraction measured as tension developed at 1 ug/ml; format: ADME, tissue-based
[6] = Peripheral serotoninmimetic activity in Charles River rat uterus assessed as uterine contraction measured as tension developed at 0.5 ug/ml; format: ADME, tissue-based
[7] = Peripheral serotoninmimetic activity in Charles River rat uterus assessed as uterine contraction measured as tension developed at 5 ug/ml; format: ADME, tissue-based
[8] = Peripheral serotoninmimetic activity in Charles River rat uterus assessed as uterine contraction measured as tension developed at 10 ug/ml; format: ADME, tissue-based
[9] = Peripheral serotoninmimetic activity in Charles River rat uterus assessed as uterine contraction measured as tension developed at 20 ug/ml; format: ADME, tissue-based
[10] = Peripheral serotoninmimetic activity in Charles River rat uterus assessed as uterine contraction measured as tension developed at 1 ug/ml relative to methacholine; format: ADME, tissue-based
[11] = Peripheral serotoninmimetic activity in Charles River rat uterus assessed as uterine contraction measured as tension developed at 0.5 ug/ml relative to methacholine; format: ADME, tissue-based
[12] = Peripheral serotoninmimetic activity in Charles River rat uterus assessed as uterine contraction measured as tension developed at 5 ug/ml relative to methacholine; format: ADME, tissue-based
[13] = Peripheral serotoninmimetic activity in Charles River rat uterus assessed as uterine contraction measured as tension developed at 10 ug/ml relative to methacholine; format: ADME, tissue-based
[14] = Peripheral serotoninmimetic activity in Charles River rat uterus assessed as uterine contraction measured as tension developed at 10 ug/ml in presence of hydroxindasol; format: ADME, tissue-based
[15] = Peripheral serotoninmimetic activity in Charles River rat uterus assessed as uterine contraction measured as tension developed at 10 ug/ml in presence of methylsergide; format: ADME, tissue-based
[16] = Ratio of serotonin EC50 to compound EC50 for peripheral serotoninmimetic activity in Charles River rat uterus; format: ADME, tissue-based
[17] = test system: Mus musculus; assay: Central serotoninmimetic activity in CF mouse assessed as induction of head twitches at 10 mg/kg, ip after 30 to 60 mins in presence of methergoline; format: functional, organism-based; parameters: dose 10 mg/kg
[18] = test system: Mus musculus; assay: Central serotoninmimetic activity in CF mouse assessed as induction of head twitches at 10 mg/kg, ip after 30 to 60 mins in presence of cyproheptadine; format: functional, organism-based; parameters: dose 10 mg/kg
[19] = test system: Mus musculus; assay: Central serotoninmimetic activity in CF mouse assessed as induction of head twitches at 10 mg/kg, ip after 30 mins in presence of xylamidine; format: functional, organism-based; parameters: dose 10 mg/kg
[20] = test system: Mus musculus; assay: Central serotoninmimetic activity in CF mouse assessed as induction of head twitches at 60 mg/kg, ip after 30 mins in presence of xylamidine; format: functional, organism-based; parameters: dose 60 mg/kg
[21] = Peripheral serotoninmimetic activity in Charles River rat uterus assessed as uterine contraction measured as tension developed at 0.00050 ug/ml relative to methacholine; format: ADME, tissue-based
[22] = Peripheral serotoninmimetic activity in Charles River rat uterus assessed as uterine contraction measured as tension developed at 0.00075 ug/ml relative to methacholine; format: ADME, tissue-based
[23] = Peripheral serotoninmimetic activity in Charles River rat uterus assessed as uterine contraction measured as tension developed at 0.001 ug/ml relative to methacholine; format: ADME, tissue-based
[24] = Peripheral serotoninmimetic activity in Charles River rat uterus assessed as uterine contraction measured as tension developed at 0.005 ug/ml relative to methacholine; format: ADME, tissue-based
[25] = Peripheral serotoninmimetic activity in Charles River rat uterus assessed as uterine contraction measured as tension developed at 0.01 ug/ml relative to methacholine; format: ADME, tissue-based
[26] = Peripheral serotoninmimetic activity in Charles River rat uterus assessed as uterine contraction measured as tension developed at 0.01 ug/ml in presence of hydroxindasol; format: ADME, tissue-based
[27] = Peripheral serotoninmimetic activity in Charles River rat uterus assessed as uterine contraction measured as tension developed at 0.01 ug/ml in presence of methylsergide; format: ADME, tissue-based
[28] = Peripheral serotoninmimetic activity in Charles River rat uterus assessed as uterine contraction measured as tension developed at 0.005 ug/ml; format: ADME, tissue-based
[29] = Peripheral serotoninmimetic activity in Charles River rat uterus assessed as uterine contraction measured as tension developed at 0.00075 ug/ml; format: ADME, tissue-based
[30] = Peripheral serotoninmimetic activity in Charles River rat uterus assessed as uterine contraction measured as tension developed at 0.001 ug/ml; format: ADME, tissue-based
[31] = Peripheral serotoninmimetic activity in Charles River rat uterus assessed as uterine contraction measured as tension developed at 0.00050 ug/ml; format: ADME, tissue-based
[32] = Peripheral serotoninmimetic activity in Charles River rat uterus assessed as uterine contraction measured as tension developed at 0.01 ug/ml; format: ADME, tissue-based
[33] = Peripheral serotoninmimetic activity in Charles River rat uterus assessed as uterine contraction measured as tension developed at 0.05 ug/ml; format: ADME, tissue-based

c1ccc(-c2cnc(N3CCNCC3)cn2)cc1
Activity [1]: inactive | Activity [2]: inactive

Cc1nccnc1N1CCNCC1
Activity [1]: inactive | Activity [2]: inactive

Clc1nccnc1N1CCNCC1
Activity [1]: inactive | Activity [2]: inactive

O=C1CN(c2cncc(Cl)n2)CCN1
Activity [1]: inactive | Activity [2]: inactive

CN(C)CCCN1CCN(c2cncc(Cl)n2)CC1
Activity [1]: inactive | Activity [2]: inactive

Clc1cncc(N2CCN(c3cncc(Cl)n3)CC2)n1
Activity [1]: inactive

c1cnc(N2CCNCC2)cn1
Activity [1]: inactive

Cl.Clc1cncc(N2CCNCC2)n1
Activity [3]: 0 g | EC50 [4]: 2.411 µg/mL | Activity [5]: 0.4 g | Activity [6]: 0.27 g | Activity [7]: 2.12 g | Activity [8]: 2.28 g | Activity [9]: 2.42 g | Emax [10]: 15% | Emax [11]: 10% | Emax [12]: 80% | Emax [13]: 86% | Activity [14]: Non-toxic | Activity [15]: Non-toxic | Ratio EC50 [16]: 300 | Activity [1]: Active | Activity [2]: Active | Activity [17]: inactive | Activity [18]: inactive | Activity [19]: Active | Activity [20]: inactive

c1ccc(-c2cncc(N3CCNCC3)n2)cc1
Activity [2]: inactive

CC(=O)OC(C)C[N+](C)(C)C (stereo unspecified) [METHACHOLINE]
Activity [5]: 2.65 g

c1ccc2nc(N3CCNCC3)ccc2c1
Activity [1]: inactive | Activity [2]: inactive

Cc1cncc(N2CCNCC2)n1
Activity [1]: Active | Activity [2]: Active

CS(=O)(=O)c1cncc(N2CCNCC2)n1
Activity [1]: inactive

NCCc1c[nH]c2ccc(O)cc12 [SEROTONIN]
Activity [3]: 3.2 g | EC50 [4]: 0.0083 µg/mL (≈ 0.0471 µM) | Emax [21]: 7% | Emax [22]: 37% | Emax [23]: 70% | Emax [24]: 80% | Emax [25]: 92% | Activity [26]: Non-toxic | Activity [27]: Non-toxic | Activity [28]: 2.67 g | Activity [29]: 1.23 g | Activity [30]: 2.32 g | Activity [31]: 0.22 g | Activity [32]: 3.08 g | Activity [33]: 3.18 g

Clc1cnc(N2CCNCC2)cn1
Activity [1]: inactive

Cc1cnc(C)c(N2CCNCC2)n1
Activity [1]: inactive

N#Cc1cncc(N2CCNCC2)n1
Activity [1]: inactive | Activity [2]: inactive

CN(C)c1cncc(N2CCNCC2)n1
Activity [1]: inactive | Activity [2]: inactive

COC(=O)c1nc(Cl)c(N2CCNCC2)nc1N
Activity [2]: inactive

Reference: ChEMBL document CHEMBL3244102, “Piperazinylpyrazines with central serotoninmimetic activity” (J Med Chem, 1978)
